In patent US7655629B2, “Peptides and their use for the treatment of HIV infections” (priority 2002, dated 2010):
Positions of bridges follow the written chain, without caps; N, C: chain ends. Non-standard residues stand in square brackets, D forms with d. Residues, ends and D or L forms follow the SMILES beside them. 1Nal = N[C@@H](Cc1cccc2ccccc12)C(=O)O; Tic = O=C(O)[C@@H]1Cc2ccccc2CN1; 3Thi = N[C@@H](Cc1ccsc1)C(=O)O; Cha = N[C@@H](CC1CCCCC1)C(=O)O

Columns and labels:
HIV-1 NL4-3 DTV = settings: read-out: IC50 DTV, P4-CCR5 cells, peptide 2 h before infection, readout three days after infection
Outline: (§1)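 P4-CCR5 cells (CD4, CCR5, CXCR4, HIV-1 promoter-driven β-galactosidase) pretreated 2 h with peptide, then infected with virus containing 1 ng p24 antigen and incubated overnight. Cells washed and cultured without peptide; three days post-infection infectivity read by chemiluminescent β-galactosidase assay, in quintuplicate.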

X4-tropic HIV-1 NL4-3 = settings: read-out: IC50 NL4-3; P4-CCR5 cells, HIV-1 NL4-3, peptide 2 h before infection, readout three days after infection
Outline: as §1

| Compound | IC50 (HIV-1 NL4-3 DTV) | IC50 (X4-tropic HIV-1 NL4-3) |
| --- | --- | --- |
| CC[C@H](C)[C@H](NC(=O)[C@H](C)NC(=O)[C@H](CCC(=O)O)NC(=O)[C@@H](N)CC(C)C)C(=O)N1CCC[C@H]1C(=O)N[C@@H](CCSC)C(=O)N[C@@H](CO)C(=O)N[C@H](C(=O)N1CCC[C@H]1C(=O)N1CCC[C@@H]1C(=O)N[C@@H](CCC(=O)O)C(=O)N[C@@H](Cc1cccc2ccccc12)C(=O)N[C@@H](C)C(=O)N[C@@H](Cc1ccccc1)C(=O)N[C@@H](CC(N)=O)C(=O)N[C@@H](CCCCN)C(=O)N1CCC[C@H]1C(=O)N[C@@H](Cc1ccccc1)C(=O)N[C@H](C(=O)N[C@@H](Cc1ccccc1)C(=O)O)C(C)C)[C@@H](C)CC [VIR-258, LEAIPMSIPpE(1-naphthylalanine)AFNKPFVF] (H-LEAIPMSIP[dP]E[1Nal]AFNKPFVF-OH) | 620 nM | 640 nM |
| CC[C@H](C)[C@H](NC(=O)[C@H](CCCCN)NC(=O)[C@H](CCC(=O)O)NC(=O)[C@@H](N)CC(C)C)C(=O)N1CCC[C@H]1C(=O)N[C@@H](CCSC)C(=O)N[C@@H](CO)C(=O)N[C@H](C(=O)N1CCC[C@H]1C(=O)N1CCC[C@@H]1C(=O)N[C@@H](CCC(=O)O)C(=O)N[C@H](C(=O)N[C@@H](C)C(=O)N[C@@H](Cc1ccccc1)C(=O)N[C@@H](CC(N)=O)C(=O)N[C@@H](CCCCN)C(=O)N1CCC[C@H]1C(=O)N[C@@H](Cc1ccccc1)C(=O)N[C@H](C(=O)N[C@@H](Cc1ccccc1)C(=O)O)C(C)C)C(C)C)[C@@H](C)CC [VIR-255, LEKIPMSIPpEVAFNKPFVF] (H-LEKIPMSIP[dP]EVAFNKPFVF-OH) | 1230 nM | 650 nM |
| CC[C@H](C)[C@H](NC(=O)[C@H](C)NC(=O)[C@H](CCC(=O)O)NC(=O)[C@@H](N)CC(C)C)C(=O)N1CCC[C@H]1C(=O)N[C@@H](CCSC)C(=O)N[C@@H](CO)C(=O)N[C@H](C(=O)N1CCC[C@H]1C(=O)N1CCC[C@@H]1C(=O)N[C@@H](CCC(=O)O)C(=O)N[C@H](C(=O)NCC(=O)N[C@@H](Cc1ccccc1)C(=O)NCC(=O)N[C@@H](CCCCN)C(=O)N1CCC[C@H]1C(=O)N[C@@H](Cc1ccccc1)C(=O)N[C@H](C(=O)N[C@@H](Cc1ccccc1)C(=O)O)C(C)C)C(C)C)[C@@H](C)CC [VIR-190, LEAIPMSIPpEVGFGKPFVF] (H-LEAIPMSIP[dP]EVGFGKPFVF-OH) | 3110 nM | 1840 nM |
| H-LEAIPMSIPPELAFAKPFVF-OH [VIR-182] | 2970 nM | 2250 nM |
| CC[C@H](C)[C@H](NC(=O)[C@H](C)NC(=O)[C@H](CCC(=O)O)NC(=O)[C@@H](N)CC(C)C)C(=O)N1CCC[C@H]1C(=O)N[C@@H](CCSC)C(=O)N[C@@H](CO)C(=O)N[C@H](C(=O)N1CCC[C@H]1C(=O)N1CCC[C@@H]1C(=O)N[C@@H](CCC(=O)O)C(=O)N[C@H](C(=O)N[C@@H](C)C(=O)N[C@@H](Cc1ccccc1)C(=O)N[C@@H](CC(N)=O)C(=O)N[C@@H](CCCCN)C(=O)N1Cc2ccccc2C[C@H]1C(=O)N[C@@H](Cc1ccccc1)C(=O)N[C@H](C(=O)N[C@@H](Cc1ccccc1)C(=O)O)C(C)C)C(C)C)[C@@H](C)CC [VIR-268, LEAIPMSIPpEVAFNK(L-Tic)FVF] (H-LEAIPMSIP[dP]EVAFNK[Tic]FVF-OH) | 1480 nM | 1730 nM |
| CC[C@H](C)[C@H](NC(=O)[C@H](C)NC(=O)[C@H](CCC(=O)O)NC(=O)[C@@H](N)CC(C)C)C(=O)N1CCC[C@H]1C(=O)N[C@H]1CSSC[C@@H](C(=O)N[C@H](C(=O)N[C@@H](CC(C)C)C(=O)N[C@@H](Cc2ccccc2)C(=O)N[C@@H](CC(N)=O)C(=O)N[C@@H](CCCCN)C(=O)N2CCC[C@H]2C(=O)N[C@@H](Cc2ccccc2)C(=O)N[C@H](C(=O)N[C@@H](Cc2ccccc2)C(=O)O)C(C)C)C(C)C)NC(=O)[C@@H]2CCCN2C(=O)[C@@H]2CCCN2C(=O)[C@H]([C@@H](C)CC)NC(=O)[C@H](CO)NC1=O [VIR-163] (H-LEAIPCSIPPCVLFNKPFVF-OH; disulfide 6-11) | 290 nM | 760 nM |
| CC[C@H](C)[C@H](NC(=O)[C@H](C)NC(=O)[C@H](CCC(=O)O)NC(=O)[C@@H](N)CC(C)C)C(=O)N1CCC[C@H]1C(=O)N[C@@H](CCSC)C(=O)N[C@@H](CO)C(=O)N[C@H](C(=O)N1CCC[C@H]1C(=O)N1CCC[C@@H]1C(=O)N[C@@H](CCC(=O)O)C(=O)N[C@H](C(=O)N[C@@H](CC1CCCCC1)C(=O)N[C@@H](Cc1ccccc1)C(=O)N[C@@H](CC(N)=O)C(=O)N[C@@H](CCCCN)C(=O)N1CCC[C@H]1C(=O)N[C@@H](Cc1ccccc1)C(=O)N[C@H](C(=O)N[C@@H](Cc1ccccc1)C(=O)O)C(C)C)C(C)C)[C@@H](C)CC [VIR-257, LEAIPMSIPpEV(cyclohexylalanine)FNKPFVF] (H-LEAIPMSIP[dP]EV[Cha]FNKPFVF-OH) | 660 nM | 860 nM |
| H-LEAIPMSIPPEVFFGKPFVF-OH [VIR-170] | 2000 nM | 1520 nM |
| CC[C@H](C)[C@H](NC(=O)[C@H](C)NC(=O)[C@H](CCC(=O)O)NC(=O)[C@@H](N)CC(C)C)C(=O)N1CCC[C@H]1C(=O)N[C@@H](CCSC)C(=O)N[C@@H](CO)C(=O)N[C@H](C(=O)N1CCC[C@H]1C(=O)N1CCC[C@@H]1C(=O)N[C@@H](CCC(=O)O)C(=O)N[C@H](C(=O)N[C@@H](Cc1ccsc1)C(=O)N[C@@H](Cc1ccccc1)C(=O)N[C@@H](CC(N)=O)C(=O)N[C@@H](CCCCN)C(=O)N1CCC[C@H]1C(=O)N[C@@H](Cc1ccccc1)C(=O)N[C@H](C(=O)N[C@@H](Cc1ccccc1)C(=O)O)C(C)C)C(C)C)[C@@H](C)CC [VIR-265, LEAIPMSIPpEV(3-thienylalanine)FNKPFVF] (H-LEAIPMSIP[dP]EV[3Thi]FNKPFVF-OH) | 2210 nM | 1290 nM |
| CC[C@H](C)[C@H](NC(=O)[C@@H]1CCCN1C(=O)[C@@H](NC(=O)[C@H](C)NC(=O)[C@H](CCC(=O)O)NC(=O)[C@@H](N)CC(C)C)[C@@H](C)CC)C(=O)N[C@@H](CO)C(=O)N[C@H](C(=O)N1CCC[C@H]1C(=O)N1CCC[C@@H]1C(=O)N[C@@H](CCC(=O)O)C(=O)N[C@H](C(=O)N[C@@H](C)C(=O)N[C@@H](Cc1ccccc1)C(=O)N[C@@H](CC(N)=O)C(=O)N[C@@H](CCCCN)C(=O)N1CCC[C@H]1C(=O)N[C@@H](Cc1ccccc1)C(=O)N[C@H](C(=O)N[C@@H](Cc1ccccc1)C(=O)O)C(C)C)C(C)C)[C@@H](C)CC [VIR-229, LEAIPISIPpEVAFNKPFVF] (H-LEAIPISIP[dP]EVAFNKPFVF-OH) | 2260 nM | 1280 nM |
| CC[C@H](C)[C@H](NC(=O)[C@H](CC(=O)O)NC(=O)[C@H](CCC(=O)O)NC(=O)[C@@H](N)CC(C)C)C(=O)N1CCC[C@H]1C(=O)N[C@@H](CCSC)C(=O)N[C@@H](CO)C(=O)N[C@H](C(=O)N1CCC[C@H]1C(=O)N1CCC[C@@H]1C(=O)N[C@@H](CCC(=O)O)C(=O)N[C@H](C(=O)N[C@@H](C)C(=O)N[C@@H](Cc1ccccc1)C(=O)N[C@@H](CC(N)=O)C(=O)N[C@@H](CCCCN)C(=O)N1CCC[C@H]1C(=O)N[C@@H](Cc1ccccc1)C(=O)N[C@H](C(=O)N[C@@H](Cc1ccccc1)C(=O)O)C(C)C)C(C)C)[C@@H](C)CC [VIR-252, LEDIPMSIPpEVAFNKPFVF] (H-LEDIPMSIP[dP]EVAFNKPFVF-OH) | 1870 nM | 1750 nM |
